# Data from article PMC5963591, “Bitopic Binding Mode of an M1 Muscarinic Acetylcholine Receptor Agonist Associated with Adverse Clinical Trial Outcomes” (Molecular Pharmacology, 2018).
# Key:
# human mAChR M5 = molecular target: T1, human mAChR M5 (Homo sapiens, UniProt P08912); test: [3H]-NMS competition binding, CHO membranes, M5
# T1 construct: purchased PerkinElmer; host or cells: CHO
# Experimental: (§1) For competition binding experiments at M1, M2, M3, M4, and M5 mAChRs, CHO membranes were purchased from PerkinElmer. All experiments were performed in assay buffer of the following composition: 20 mM HEPES, 100 mM NaCl, and 10 mM MgCl2, pH 7.5, and used 10 µg protein/well in a total assay volume of 1 ml using deep well blocks. […] All assay incubations were initiated by the addition of membrane suspensions and deep well blocks were shaken for 5 minutes to ensure complete mixing. Incubation was then carried out for 2 hours at 21°C. Binding reactions were terminated by rapid filtration through GF/A filters (PerkinElmer) presoaked with 0.5% (w/v) polyethylenimine for 1 hour. Filters were then washed three times with 1 ml ice-cold assay buffer.
# (§2) Inhibition binding data were curve-fit using GraphPad Prism 6 to derive the potency (IC50) of the test compound. The equilibrium dissociation constant (KI) of the test compound was then calculated with the Cheng–Prusoff equation: KI = IC50/[1 + ([L]/KD)] using the KD value derived separately from saturation binding studies.
# human M1 mAChR = molecular target: T2, human M1 mAChR (Homo sapiens, UniProt P11229); test: Kinetic [3H]-NMS binding (dissociation) in membranes; design: expressed in transfected cells; host or cells: CHO Flp-In; conditions: compound 10 μM plus atropine 10 μM
# T2 sequence (P11229 1-460): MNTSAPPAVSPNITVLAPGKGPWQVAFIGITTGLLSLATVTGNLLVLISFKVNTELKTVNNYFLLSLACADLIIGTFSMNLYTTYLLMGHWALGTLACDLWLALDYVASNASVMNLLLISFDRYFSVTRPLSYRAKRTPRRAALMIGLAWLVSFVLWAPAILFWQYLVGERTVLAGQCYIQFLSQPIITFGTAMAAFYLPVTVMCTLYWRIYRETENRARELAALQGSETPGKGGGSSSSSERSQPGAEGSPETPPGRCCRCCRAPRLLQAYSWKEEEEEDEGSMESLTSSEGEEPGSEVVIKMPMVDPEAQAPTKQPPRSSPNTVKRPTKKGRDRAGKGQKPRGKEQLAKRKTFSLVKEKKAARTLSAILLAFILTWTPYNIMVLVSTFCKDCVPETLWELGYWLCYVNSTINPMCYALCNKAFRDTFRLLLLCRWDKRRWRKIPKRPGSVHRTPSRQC
# Experimental: Reactions were terminated by rapid filtration onto GF/B filter paper (Whatman, Maidstone, UK) and three washes with 3 ml ice-cold 0.9% NaCl using a Brandel harvester (M-24TI; Brandel, Fort Lauderdale, FL). Membrane bound radioactivity was determined by liquid scintillation (Ultima Gold; PerkinElmer) counting.
# human M1 receptor = molecular target: T3, human M1 receptor (Homo sapiens, UniProt P11229); test: ERK1/2 phosphorylation, CHO Flp-In human M1 cells; format: cell-based
# T3 construct: expressed in transfected cells; host or cells: CHO Flp-In
# T3 sequence (P11229 1-460): T2 sequence (P11229 1-460)
# Experimental: CHO Flp-In cells stably expressing the human M1 receptor were seeded onto transparent 96-well plates at 20,000 cells/well and grown to confluence. Cells were serum starved overnight prior to the experiment. Prior to the stimulations, cells were washed with 100 μl phosphate-buffered saline and then incubated in serum free F12 medium at 37°C. Cells were stimulated with ligands for 5 minutes at 37°C in a final volume of 200 μl. The stimulations were terminated by rapid aspiration and addition of 50 μl lysis buffer supplemented with blocking reagent per the manufacturer’s instructions, followed by gentle agitation at room temperature for 30 minutes. Subsequently, 16 μl of this lysate was transferred to a 384-well white ProxiPlate (PerkinElmer) and incubated with 4 μl premixed antibody solution for 2 hours at room temperature.
# For the analysis, all families of agonist curves at each pathway were globally fitted to the model with the parameters, basal, Em, and n shared between all agonists. For full agonists, the LogKA was constrained to a value of zero, whereas for partial agonists this was directly estimated by the curve fitting procedure; the Log(τ/KA) parameter was estimated as a unique measure of activity for each agonist.
# human mAChR M2 = molecular target: T4, human mAChR M2 (Homo sapiens, UniProt P08172); test: [3H]-NMS competition binding, CHO membranes, M2
# T4 construct: purchased PerkinElmer; host or cells: CHO
# T4 sequence (P08172 whole entry): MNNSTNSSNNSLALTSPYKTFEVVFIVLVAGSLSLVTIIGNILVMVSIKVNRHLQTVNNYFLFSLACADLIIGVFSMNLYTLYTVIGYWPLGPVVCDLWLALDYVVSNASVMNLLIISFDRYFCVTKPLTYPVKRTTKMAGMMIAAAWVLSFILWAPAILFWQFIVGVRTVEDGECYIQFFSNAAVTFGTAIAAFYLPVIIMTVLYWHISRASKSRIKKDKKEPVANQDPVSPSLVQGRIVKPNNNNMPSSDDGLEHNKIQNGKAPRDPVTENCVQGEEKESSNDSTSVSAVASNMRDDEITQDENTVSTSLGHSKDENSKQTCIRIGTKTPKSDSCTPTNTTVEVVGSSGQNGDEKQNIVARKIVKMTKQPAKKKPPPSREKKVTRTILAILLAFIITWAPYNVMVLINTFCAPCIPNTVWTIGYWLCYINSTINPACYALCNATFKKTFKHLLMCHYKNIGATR
# Experimental: as §1, §2
# [1] = Mouse pharmacokinetics, unbound plasma and brain concentrations; format: in vivo; conditions: mice, 30 minutes after i.p. administration
# Experimental: Pharmacokinetic analyses were conducted as previously described ([Witkin et al., 2017]). Compounds were administered via intraperitoneal injection (in 5% glucose) 30 minutes prior to blood collection. Mice were anesthetized with 3% isoflurane (2 l/min), and blood was collected by cardiac puncture of the left ventricle. Blood was immediately transferred to EDTA tubes and centrifuged at 1000g for 10 minutes at 4°C; the supernatant was collected and frozen. Brains from each mouse were also dissected and snap-frozen on dry ice.
# Brain samples were homogenized in three volumes of methanol/water [1:4 (v/v)] by weight. A 25-μl aliquot of each study sample, calibration standard, and control sample was added to a 96-well plate and mixed with 180 μl acetonitrile/methanol [1:1 (v/v)] containing internal standard. The samples were subsequently centrifuged, and the resulting supernatants were diluted 12.5-fold with methanol/water [1:1 (v/v)] prior to analyzing 10-μl aliquots by liquid chromatography–tandem mass spectrometry as previously described ([Bradley et al., 2017]).
# humanized M1 DREADD [2] = molecular target: T5, humanized M1 DREADD (Homo sapiens, UniProt P11229, A196G/Y106C); test: IP1 accumulation and ERK1/2 phosphorylation at M1 DREADD, CHO Flp-In cells; format: cell-based
# T5 construct: expressed in transfected cells; host or cells: CHO Flp-In
# T5 sequence (P11229 whole entry Y106C/A196G): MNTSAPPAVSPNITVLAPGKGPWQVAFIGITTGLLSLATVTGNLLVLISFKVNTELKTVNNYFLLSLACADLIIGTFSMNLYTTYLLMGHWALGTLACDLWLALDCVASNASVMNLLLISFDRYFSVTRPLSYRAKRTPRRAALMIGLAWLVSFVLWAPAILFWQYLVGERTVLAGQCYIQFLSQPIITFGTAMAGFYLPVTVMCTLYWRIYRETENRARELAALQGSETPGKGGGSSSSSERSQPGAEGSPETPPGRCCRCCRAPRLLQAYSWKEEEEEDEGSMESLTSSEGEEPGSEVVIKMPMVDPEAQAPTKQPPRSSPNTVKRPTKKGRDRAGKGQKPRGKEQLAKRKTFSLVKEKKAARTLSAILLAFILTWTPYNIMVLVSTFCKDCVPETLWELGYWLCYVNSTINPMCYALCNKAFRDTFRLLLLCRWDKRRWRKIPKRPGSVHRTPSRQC
# C57Bl/6J mice = test: Contextual fear conditioning, scopolamine-induced deficit; format: in vivo, mouse; conditions: escalating i.p. doses with scopolamine […]
# Experimental: C57Bl/6J male mice (aged 8–12 weeks) were acclimatized to the behavioral testing suite at least 2 hours prior to the test. […] Mice were placed in the conditioning chamber (ANY-maze Fear Conditioning System; Stoelting, Dublin, Ireland); after a 2-minute adaptation period, they received three tone/foot shock pairings where the foot shock (unconditioned stimulus; 2 seconds; 0.4 mA) always co-terminated with a tone (conditioned stimulus; 2.8 kH; 85 dB; 30 seconds). The conditioned stimulus–unconditioned stimulus pairings were separated by 1-minute intervals. After the mice completed training, they remained in the conditioning chamber for 1 minute and were then returned to their home cages. The next day, the mice were placed back in the conditioning chamber, and time spent immobile was recorded for 3 minutes to assess context-dependent learning. Data were analyzed using ANY-maze software (Stoelting).
# humanized M1 DREADD [3] = molecular target: T5, humanized M1 DREADD; test: Equilibrium [3H]-NMS binding, CHO Flp-In cell monolayers, M1 DREADD
# Experimental: Prior to the experiment, cells were washed with 100 μl phosphate-buffered saline. […] Binding was terminated by rapid aspiration followed by two washes with 200 μl ice-cold 0.9% NaCl. Bound radioactivity was determined by liquid scintillation (Ultima Gold; PerkinElmer, Boston, MA) counting. Nonspecific binding was determined in the presence of 10 μM atropine.
# as §2
# M4 mAChR = molecular target: T6, M4 mAChR (Homo sapiens, UniProt P08173); test: ERK1/2 phosphorylation, CHO cells, M4; format: cell-based
# T6 construct: expressed in transfected cells; host or cells: CHO
# T6 sequence (P08173 whole entry): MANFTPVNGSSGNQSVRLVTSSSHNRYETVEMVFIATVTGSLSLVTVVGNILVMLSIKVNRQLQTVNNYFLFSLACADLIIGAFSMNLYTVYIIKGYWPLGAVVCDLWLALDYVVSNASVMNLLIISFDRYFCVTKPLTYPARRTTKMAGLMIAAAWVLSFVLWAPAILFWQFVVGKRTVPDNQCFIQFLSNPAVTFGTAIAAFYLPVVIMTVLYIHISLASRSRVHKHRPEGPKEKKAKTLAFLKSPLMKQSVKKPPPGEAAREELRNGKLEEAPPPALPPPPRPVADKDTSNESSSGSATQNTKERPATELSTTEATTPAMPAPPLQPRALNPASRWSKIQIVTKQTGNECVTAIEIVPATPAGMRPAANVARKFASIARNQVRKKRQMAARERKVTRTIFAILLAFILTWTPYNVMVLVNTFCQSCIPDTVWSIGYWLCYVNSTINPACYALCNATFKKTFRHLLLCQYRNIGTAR
# T1 sequence (P08912 whole entry): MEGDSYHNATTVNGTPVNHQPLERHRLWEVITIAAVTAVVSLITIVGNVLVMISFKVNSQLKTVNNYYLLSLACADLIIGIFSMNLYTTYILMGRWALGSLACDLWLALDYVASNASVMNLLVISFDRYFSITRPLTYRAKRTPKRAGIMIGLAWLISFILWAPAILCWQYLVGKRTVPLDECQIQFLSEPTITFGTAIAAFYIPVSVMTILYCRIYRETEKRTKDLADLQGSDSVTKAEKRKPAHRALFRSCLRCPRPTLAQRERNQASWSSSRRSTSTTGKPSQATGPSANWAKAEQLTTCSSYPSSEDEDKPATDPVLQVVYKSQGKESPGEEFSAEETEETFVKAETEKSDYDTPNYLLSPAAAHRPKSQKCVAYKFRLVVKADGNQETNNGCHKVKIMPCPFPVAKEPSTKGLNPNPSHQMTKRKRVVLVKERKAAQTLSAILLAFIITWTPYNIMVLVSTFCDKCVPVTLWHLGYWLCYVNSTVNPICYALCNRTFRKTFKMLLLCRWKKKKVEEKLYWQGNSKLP
smiles,measurement,setting,value
"Cc1cc(F)c2[nH]c(=O)n(C3CCN(C4CCOCC4)CC3)c2c1 [GSK1034702, 7-fluoro-5-methyl-3-[1-(oxan-4-yl)piperidin-4-yl]-1H-benzimidazol-2-one]",Ki,human mAChR M5,6.31 µM
same,effect on the [^3H]-NMS dissociation rate,human M1 mAChR,no effect
same,ERK1/2 Phosphorylation ΔLog10(τ/KA),human M1 receptor; normalized to reference ligand ACh,0.1 ± 0.1
same,ERK1/2 Phosphorylation Log10(τ/KA),"human M1 receptor; transduction coefficient, wild-type M1 mAChR",7.2 ± 0.1
same,Ki,human mAChR M2,3.98 µM
same,free brain concentration versus dose,[1],increase linearly with escalating doses
same,potency and efficacy at the M1 DREADD compared with the wild-type receptor,humanized M1 DREADD [2],comparable potency and efficacy
same,shape of the dose response on learning and memory,C57Bl/6J mice,bell shaped
same,Ki,humanized M1 DREADD [3],1 µM
same,functional activity in ERK1/2 phosphorylation,M4 mAChR,partial agonist activity
